In patent publication US7312024B2, “Materials and methods to inhibit Hodgkin and Reed Sternberg cell growth” (Amgen Canada Inc., priority 1999, dated 2007):

Tested on: HDLM2 cells
Assay: [3H]-thymidine incorporation proliferation of HDLM2 cells after neutralization of IL-13
Format: cell-based, human
Settings: IL-13 0.5-200 ng/ml
Experimental: To investigate the effects of IL-13 and IL-5 on the proliferation of H/RS cells, L428, KMH2 and HDLM2 cells were incubated with either (i) medium alone, (ii) medium containing neutralizing antibodies to IL-13 or IL-5, or (ii) isotype matched control antibodies. Proliferation was measured by determining [^3H]-thyridine incorporation at 24, 48, or 72 hours after treatment.
HD-derived L428, KMH2, and HDLM2 cells and LCL control cells (2×10^4/well) were cultured in 96-well flat-bottom plates for 24 hours, 48 hours, or 72 hours in the presence of anti-IL-13, anti-IL-5, or isotype control antibodies at 5, 10, 20, 30, 50, 100 or 150 μg/ml. Cells were treated either with IL-13 (0.5, 1, 5, 10, 50, 100 and 200 ng/ml), or with these same doses of IL-13 combined with 20 μg/ml anti-IL-13 monoclonal antibody. Tritium-labeled thymidine (1 μCi/well) was added to each well and incubation continued for eight hours. Cells were harvested on filters and incorporation of […] into cellular DNA was measured as previously described [Shahinian, et al., Science 261:609-12 (1993)]. The viability of cultured cell lines after treatment with anti-IL-13 neutralizing antibodies was examined by 7-aminoactinomycin D (7-AAD) staining.

IL-13: exogenous IL-13 cytokine added to cells
proliferation with exogenous IL-13 alone versus untreated cells: did not result in an increase in proliferation
